Reference: PMC3793924, “Targeting Androgen Receptor/Src Complex Impairs the Aggressive Phenotype of Human Fibrosarcoma Cells” (PLoS ONE, 2013)

Columns and labels:
HT1080 cells [1] = assay: BrdU incorporation (DNA synthesis) in quiescent HT1080 cells; assay type: cell-based, human; conditions: EGF 100 ng/ml, 18 h; for Inhibition of EGF-induced BrdU incorporation (DNA synthesis): Casodex 10 μM, S1 and Ss peptides 1 nM, BrdU by IF, % of total nuclei
Description: Human fibrosarcoma HT1080 cells were used. In A, quiescent cells on coverslips were left un-stimulated or stimulated for 18 h with the indicated compounds. […] After in vivo pulse with BrdU (100 μM; Sigma), BrdU incorporation was analyzed by IF and expressed as % of total nuclei. Several independent experiments were performed in duplicate and the results were derived from at least 400 scored cells for each coverslip. Mean and SEM are shown. n represents the number of experiments. […] In B, xenografts were established in nude male mice as described in Methods. On alternate days, animals were intra-peritoneally injected with vehicle alone (vehicle), or the pure androgen antagonist Casodex (Cx: 0.1 μg/mice; 4µg/Kg body weight), or DHT (DHT: 0,1 μg/mice; 3 μg/Kg body weight) alone. Volumes of HT1080 cell xenografts were measured at the indicated times in two dimensions by a caliper and expressed as tumor mass (mm^3). Mean and SEM are shown. n represents the number of experiments.
(§1) Quiescent HT1080 cells were used. […] Casodex (at 10 μM) was used for comparison with the S1 peptide. Upper section in A, Western blot of HT1080 cell lysates with anti-EGFR antibody. […] In B, lysates were immune-precipitated with the anti-Src MAb and Src activity in immune complexes was assayed using acidified enolase, as a substrate. In C, cells on coverslips were left untreated or treated for 18 h with the indicated compounds. After in vivo pulse with BrdU (100 μM), BrdU incorporation was analyzed by IF and expressed as % of total nuclei. Several independent experiments were performed in duplicate and the results were obtained from at least 500 scored cells for each coverslip. Mean and SEM are shown. n represents the number of experiments.

HCT116 cells = assay: Trans-well migration of HCT116 cells; assay type: cell-based, human; conditions: quiescent HCT116 cells, 6 h, EGF 100 ng/ml; for Inhibition of EGF-induced motility (Trans-well): Casodex 10 μM, S1 and Ss peptides 10 nM
KP-2 cells [2] = assay: Trans-well migration of KP-2 cells; assay type: cell-based, human; conditions: quiescent KP-2 cells, 6 h, EGF 100 ng/ml; for Inhibition of EGF-induced motility (transmigration): Casodex 10 μM, S1 and Ss peptides 10 nM
MCF-7 cells [3] = assay: Trans-well migration of MCF-7 cells; assay type: cell-based, human; conditions: quiescent MCF-7 cells, 6 h, EGF 100 ng/ml; for Inhibition of EGF-induced motility (transmigration): Casodex 10 μM, S1 and Ss peptides 10 nM
MCF-7 cells [4] = assay: BrdU incorporation in MCF-7 cells; assay type: cell-based, human; conditions: quiescent MCF-7 cells, EGF 100 ng/ml, 18 h; for Inhibition of EGF-induced BrdU incorporation: Casodex 10 μM, S1 and Ss peptides 1nM
Description: (§2) Quiescent human prostate cancer-derived LNCaP cells were used. In A, quiescent cells on coverslips were left unstimulated or stimulated for 18 h with the indicated compounds. […] After in vivo pulse with BrdU (100 μM), BrdU incorporation was analyzed by IF and expressed as % of total cells. Several independent experiments were performed in duplicate and the results were derived from at least 600 scored cells for each coverslip. Mean and SEM are shown. n represents the number of experiments. In B, the cells were left untreated or treated for 6 h with the indicated compounds. […] Cells were allowed to migrate in collagen pre-coated Trans-well filters. Migrated cells were stained and counted as reported in Methods. Results were derived from several independent experiments, each performed in duplicate. Data are expressed as relative increase. Mean and SEM are shown. n represents the number of experiments. Quiescent human breast cancer-derived MCF-7 cells were used. In C, quiescent cells on coverslips were left un-stimulated or stimulated for 18 h with the indicated compounds. […] After in vivo pulse with BrdU (100 μM), BrdU incorporation was analyzed by IF and expressed as % of total cells. Several independent experiments were performed in duplicate and the results were derived from at least 500 scored cells for each coverslip. Mean and SEM are shown. n represents the number of experiments. In D, the cells were left untreated or treated for 6 h with the indicated compounds. […] Cells were allowed to migrate in collagen-pre-coated Trans-well filters. Migrated cells were stained and counted as reported in Methods. Results were derived from several independent experiments, each performed in duplicate. Data are expressed as relative increase. Mean and SEM are shown. n represents the number of experiments.

KP-2 cells [5] = assay: BrdU incorporation in KP-2 cells; assay type: cell-based, human; conditions: quiescent KP-2 cells, EGF 100 ng/ml, 18 h; for Inhibition of EGF-induced BrdU incorporation: Casodex 10 μM, S1 and Ss peptides 10 nM
Description: Quiescent human colon cancer-derived HCT116 cells were used. In A, cells on coverslips were left un-stimulated or stimulated for 18 h with the indicated compounds. […] After in vivo pulse with BrdU (100 μM), BrdU incorporation was analyzed by IF and expressed as % of total cells. Several independent experiments were performed in duplicate and the results were derived from at least 400 scored cells for each coverslip. Mean and SEM are shown. n represents the number of experiments. In B, the cells were left untreated or treated for 6 h with the indicated compounds. […] Cells were allowed to migrate in collagen-pre-coated Trans-well filters. Migrated cells were stained and counted as reported in Methods. Results were derived from several independent experiments, each performed in duplicate. Data are expressed as relative increase. Mean and SEM are shown. n represents the number of experiments. Quiescent human pancreatic cancer-derived KP-2 cells were used. In C, cells on coverslips were left unstimulated or stimulated for 18 h with the indicated compounds. […] After in vivo pulse with BrdU (100 μM), BrdU incorporation was analyzed by IF and expressed as % of total cells. Several independent experiments were performed in duplicate and the results were derived from at least 400 scored cells for each coverslip. Mean and SEM are shown. n represents the number of experiments. In D, the cells were left untreated or treated for 6 h with the indicated compounds. […] Cells were allowed to migrate in collagen-pre-coated Trans-well filters. Migrated cells were stained and counted as reported in Methods. Results were derived from several independent experiments, each performed in duplicate. Data are expressed as relative increase. Mean and SEM are shown. n represents the number of experiments. […] After in vivo labeling with 100 μM BrdU (Sigma), DNA synthesis was analyzed by immunofluorescence, using diluted (1:50 in PBS) mouse monoclonal anti-BrdU antibody (clone BU-1, from GE Healthcare).

LNCaP cells = assay: BrdU incorporation in LNCaP cells; assay type: cell-based, human; conditions: quiescent LNCaP cells, EGF 100 ng/ml, 18 h; for Inhibition of EGF-induced BrdU incorporation: Casodex 10 μM, S1 and Ss peptides 10 nM
Description: as §2

HT1080 cells [6] = assay: Wound scratch assay in HT1080 cells; assay type: cell-based, human; conditions: quiescent HT1080 cells, 6 h, EGF 100 ng/ml; for Effect on EGF-induced wound closure (migration): Casodex 10 μM, S1 and Ss peptides 10 nM
Src tyrosine kinase = molecular target: T1, Src tyrosine kinase (Homo sapiens, UniProt P12931); assay: Src kinase activity in immune complexes from HT1080 cells (enolase substrate); assay type: cell-based; conditions: quiescent HT1080 cells, EGF 100 ng/ml 10 min; S1 and Ss peptides 1 nM; Casodex 10 μM
T1 construct: lysates were immune-precipitated with the anti-Src MAb and Src activity in immune complexes was assayed using acidified enolase; endogenous in cells; host or cells: HT1080 human fibrosarcoma cells
Description: as §1
(§3) Lysates (at 2 mg/ml protein concentration) were prepared as described. […] The Src tyrosine kinase activity in immunocomplexes was assayed using enolase (Sigma) as a substrate.

EGFR/AR/Src complex = molecular target: T2, EGFR/AR/Src complex (Homo sapiens, UniProt P12931); assay: Co-immunoprecipitation of EGFR/AR/Src complex in HT1080 cells; assay type: cell-based; conditions: quiescent HT1080 cells; for Effect on EGF-induced EGFR/AR/Src complex assembly: EGF 100 ng/ml 10 min, S1 and Ss peptides 1 nM, anti-EGFR immunoprecipitation
T2 construct: endogenous in cells; host or cells: HT1080 human fibrosarcoma cells
Description: as §1, §3

Row | Compound | Inhibition of EGF-induced BrdU incorporation (DNA synthesis) (HT1080 cells [1]) | Inhibition of EGF-induced motility (Trans-well) (HCT116 cells) | Inhibition of EGF-induced motility (transmigration) (KP-2 cells [2]) | Inhibition of EGF-induced motility (transmigration) (MCF-7 cells [3]) | Inhibition of EGF-induced BrdU incorporation (MCF-7 cells [4]) | Inhibition of EGF-induced BrdU incorporation (KP-2 cells [5]) | Inhibition of EGF-induced BrdU incorporation (LNCaP cells) | Effect on EGF-induced wound closure (migration) (HT1080 cells [6]) | Inhibition of EGF-triggered Src activity stimulation (Src tyrosine kinase) | Effect on EGF-induced EGFR/AR/Src complex assembly (EGFR/AR/Src complex) | BrdU incorporation (DNA synthesis) upon stimulation with the compound alone (HT1080 cells [1]; R1881 and DHT 10 nM) | Association of EGF-R with AR and Src upon stimulation (EGFR/AR/Src complex; EGF 100 ng/ml, 10 min) | Motility upon stimulation (HCT116 cells) | Motility upon stimulation (KP-2 cells [2]) | Motility in transmigration assay upon stimulation (MCF-7 cells [3]) | BrdU incorporation upon stimulation (MCF-7 cells [4]) | BrdU incorporation upon stimulation (KP-2 cells [5]) | BrdU incorporation upon stimulation (LNCaP cells) | Wound closure upon stimulation (HT1080 cells [6])
1 | CC(O)(CS(=O)(=O)c1ccc(F)cc1)C(=O)Nc1ccc(C#N)c(C(F)(F)F)c1 (stereo not shown) [Casodex] | inhibits the EGF-induced BrdU incorporation | similarly inhibit these EGF-elicited responses | inhibit both DNA synthesis and motility | inhibited to a similar extent | inhibits EGF-induced BrdU incorporation | inhibit both DNA synthesis and motility | inhibits EGF-induced BrdU incorporation | Only few cells migrate | This inhibition is comparable to that observed by treatment of cells with 10 μM Casodex |  |  |  |  |  |  |  |  |  | 
2 | Ac-HPKPARIPHP-NH2 [Ss peptide] | only slightly affects | does not interfere with the EGF-elicited responses | does not interfere with the EGF-elicited responses |  | only slightly affects DNA synthesis | does not interfere with the EGF-elicited responses | only slightly affects DNA synthesis | much weaker inhibitory effect | only slightly affects | only slightly affects |  |  |  |  |  |  |  |  | 
3 | Ac-PPPHPHARIK-NH2 [S1 peptide] | abolishes the mitogenic response elicited by EGF | similarly inhibit these EGF-elicited responses | inhibit both DNA synthesis and motility | inhibited to a similar extent | abolishes the mitogenic response elicited by EGF | inhibit both DNA synthesis and motility | abolishes the mitogenic response elicited by EGF | consistently inhibits the EGF-induced effect | completely abolishes | abolishes AR/Src association with EGF-R |  |  |  |  |  |  |  |  | 
4 | EGF: epidermal growth factor (Roche), used as stimulus at 100 ng/ml |  |  |  |  |  |  |  |  |  |  | significantly incorporate BrdU | induces association of EGF-R with AR and Src | robustly increases | significantly increases | significantly increases the motility | robustly incorporate BrdU | significantly increases BrdU incorporation | robustly incorporate BrdU | almost complete wound closure
